Patent US9150632B2 (Indiana University Research and Technology Corporation, priority 2009, dated 2015)
Like-named read-outs stand apart in the source and are kept apart here. Non-standard residues stand in square brackets, D forms with d. Residues, ends and D or L forms follow the SMILES beside them. No end group written: not given here. *: point of attachment. Palmitoyl = CCCCCCCCCCCCCCCC(=O)*; Myristoyl = CCCCCCCCCCCCCC(=O)*; Aib = CC(C)(N)C(=O)O

Columns and labels:
glucagon receptor = target: T1, glucagon receptor (Homo sapiens, UniProt P47871); assay: Functional assay-cAMP synthesis, luciferase reporter in HEK293 cells, glucagon receptor; type: cell-based; conditions: for % Relative activity at the Receptor for Glucagon: relative to the native hormone; for Glucagon Receptor % relative activity: activity relative to the native hormone at the indicated receptor; for % Activity of Glucagon: Table 21, relative to the native peptide
T1 construct: expressed in transfected cells; host or cells: HEK293
T1 sequence (P47871 26-477): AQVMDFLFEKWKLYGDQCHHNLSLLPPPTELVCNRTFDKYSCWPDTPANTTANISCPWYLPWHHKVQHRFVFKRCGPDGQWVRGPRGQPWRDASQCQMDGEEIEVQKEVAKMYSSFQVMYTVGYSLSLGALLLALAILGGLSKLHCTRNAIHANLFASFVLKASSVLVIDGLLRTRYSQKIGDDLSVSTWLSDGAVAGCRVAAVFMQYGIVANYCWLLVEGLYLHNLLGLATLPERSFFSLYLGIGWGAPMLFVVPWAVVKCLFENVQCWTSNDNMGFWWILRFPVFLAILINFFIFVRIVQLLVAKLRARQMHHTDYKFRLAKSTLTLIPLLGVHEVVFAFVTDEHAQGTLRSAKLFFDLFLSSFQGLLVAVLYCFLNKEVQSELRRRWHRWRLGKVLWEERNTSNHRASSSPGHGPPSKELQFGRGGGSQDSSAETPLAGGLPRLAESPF
Protocol: (§1) Peptide absorbance readings were obtained from UV Absorbance measurements at 280 nm on a Genesys 6 Spectrophotometer (Thermo Electron Corporation). Beer's Law was used to calculate solution concentrations based on the number of tryptophan and tyrosine residues in each analog. At the end of the incubation, 100 μL LucLite luminescence substrate reagent was added to each well, the plate sealed and shaken, and placed into a Wallac Trilux luminescence counter for cAMP detection.
(§2) HEK293 cells were co-transfected with the GcgR or GLP-1R cDNAs and a luciferase reporter gene-linked to a cAMP response element (CRE). […] The plate was incubated for 10 min in the dark and light output was quantified on a MicroBeta1450 liquid scintillation counter (Perkin-Elmer, Wellesley, Mass.).

GLP-1 receptor = GLP-1 receptor (Homo sapiens, UniProt P43220); conditions: for % Relative activity at the Receptor for GLP-1: relative to the native hormone; for GLP-1 Receptor % relative activity: activity relative to the native hormone at the indicated receptor; for EC50: read-out: GLP-1 Receptor EC50, cAMP induction, in vitro, as in Example 14; for % Activity of GLP-1: Table 21, relative to the native peptide
Sequence of GLP-1 receptor (P43220 24-463, species assumed): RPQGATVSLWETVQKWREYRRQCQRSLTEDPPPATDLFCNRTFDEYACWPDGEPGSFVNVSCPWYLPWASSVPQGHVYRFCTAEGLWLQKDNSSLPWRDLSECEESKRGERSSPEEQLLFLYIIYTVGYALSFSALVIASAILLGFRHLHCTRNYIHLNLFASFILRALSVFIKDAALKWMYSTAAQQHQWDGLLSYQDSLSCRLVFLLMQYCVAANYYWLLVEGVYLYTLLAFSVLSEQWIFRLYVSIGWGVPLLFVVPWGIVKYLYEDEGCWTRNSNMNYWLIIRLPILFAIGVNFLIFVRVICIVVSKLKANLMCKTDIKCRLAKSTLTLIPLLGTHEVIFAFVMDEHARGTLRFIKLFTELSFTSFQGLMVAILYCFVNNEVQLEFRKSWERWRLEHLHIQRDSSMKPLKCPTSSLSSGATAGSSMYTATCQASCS
Protocol: as §1, §2

GIP receptor = target: T2, GIP receptor (Homo sapiens, UniProt P48546); assay: Functional assay-cAMP synthesis, luciferase reporter in HEK293 cells, GIP receptor; type: cell-based; conditions: for % Relative activity at the Receptor for GIP: relative to the native hormone; for GIP Receptor % relative activity: activity relative to the native hormone at the indicated receptor; for EC50: read-out: GIP Receptor EC50, cAMP induction, in vitro, as in Example 14
T2 construct: expressed in transfected cells; host or cells: HEK293
T2 sequence (P48546 22-466): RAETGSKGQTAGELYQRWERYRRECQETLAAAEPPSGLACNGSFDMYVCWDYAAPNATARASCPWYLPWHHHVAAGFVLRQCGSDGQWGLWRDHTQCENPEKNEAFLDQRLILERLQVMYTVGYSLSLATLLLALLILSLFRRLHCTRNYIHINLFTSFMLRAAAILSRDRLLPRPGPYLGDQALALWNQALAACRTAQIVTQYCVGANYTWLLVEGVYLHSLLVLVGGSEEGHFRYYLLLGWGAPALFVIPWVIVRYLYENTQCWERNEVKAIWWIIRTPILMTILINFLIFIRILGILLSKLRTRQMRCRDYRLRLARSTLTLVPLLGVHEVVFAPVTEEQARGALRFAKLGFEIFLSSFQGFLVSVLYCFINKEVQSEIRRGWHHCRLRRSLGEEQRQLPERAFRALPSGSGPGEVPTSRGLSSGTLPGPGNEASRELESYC

CCCCCCCCCCCCCC(=O)NCCCC[C@H](NC(=O)[C@H](CO)NC(=O)[C@@H]1CCCN1C(=O)[C@@H]1CCCN1C(=O)[C@@H]1CCCN1C(=O)[C@H](C)NC(=O)CNC(=O)[C@H](CO)NC(=O)[C@H](CO)NC(=O)[C@@H]1CCCN1C(=O)CNC(=O)CNC(=O)[C@H](CC(N)=O)NC(=O)[C@H](CCSC)NC(=O)[C@H](CC(C)C)NC(=O)[C@H](Cc1c[nH]c2ccccc12)NC(=O)[C@H](CS)NC(=O)[C@@H](NC(=O)[C@H](Cc1ccccc1)NC(=O)[C@H](CCC(=O)O)NC(=O)[C@H](CCCCN)NC(=O)[C@H](C)NC(=O)[C@H](C)NC(=O)[C@H](CCC(N)=O)NC(=O)C(C)(C)NC(=O)[C@H](CC(=O)O)NC(=O)[C@H](CC(C)C)NC(=O)[C@H](Cc1ccc(O)cc1)NC(=O)[C@H](CCCCN)NC(=O)[C@H](CO)NC(=O)[C@H](Cc1ccc(O)cc1)NC(=O)[C@H](CC(=O)O)NC(=O)[C@H](CO)NC(=O)[C@@H](NC(=O)[C@H](Cc1ccccc1)NC(=O)[C@@H](NC(=O)CNC(=O)[C@H](CCC(N)=O)NC(=O)C(C)(C)NC(=O)[C@@H](N)Cc1c[nH]cn1)[C@@H](C)O)[C@@H](C)O)[C@@H](C)CC)C(N)=O [mt-347] (H-H[Aib]QGTFTSDYSKYLD[Aib]QAAKEFICWLMNGGPSSGAPPPSK(Myristoyl)-NH2; N-terminus assumed)
% Relative activity at the Receptor for Glucagon (glucagon receptor; Table 35): 111% | Glucagon Receptor % relative activity (glucagon receptor): 111.36% | % Relative activity at the Receptor for GLP-1 (GLP-1 receptor; Table 35): 67% | GLP-1 Receptor % relative activity (GLP-1 receptor): 67.07% | % Relative activity at the Receptor for GIP (GIP receptor; Table 35): 0.7% | GIP Receptor % relative activity (GIP receptor): 0.70%

mt-351: pegylated glucagon peptide of Table 34 (H[Aib]QGTFTSDYSKYLD[Aib]QAAKEFIC(PEG 40 kDa)WLMNGGPSSGAPPPSK(Myristoyl)-NH2; also: acylated with a C14 fatty acyl group, site not given here)
GLP-1 Receptor % relative activity (GLP-1 receptor): 150.00% | EC50 (GLP-1 receptor): 0.0042 nM | GIP Receptor % relative activity (GIP receptor): 0.09% | EC50 (GIP receptor): 4.12 nM

mt-349 (H[Aib]QGTFTSDYSKYLDEQAAKEFIC(PEG 40 kDa)WLMNGGPSSGAPPPSK(Myristoyl)-NH2; also: acylated with a C14 fatty acyl group, site not given here)
Glucagon Receptor % relative activity (glucagon receptor): 3.82% | EC50 (glucagon receptor; read-out: Glucagon Receptor EC50, cAMP induction, in vitro, as in Example 14): 0.549 nM | GLP-1 Receptor % relative activity (GLP-1 receptor): 286.36% | EC50 (GLP-1 receptor): 0.0022 nM | GIP Receptor % relative activity (GIP receptor): 0.18% | EC50 (GIP receptor): 1.99 nM

mt-352: pegylated glucagon peptide of Table 34 (H[Aib]QGTFTSDYSKYLD[Aib]QAAKEFIC(PEG 40 kDa)WLMNGGPSSGAPPPSK-NH2)
GLP-1 Receptor % relative activity (GLP-1 receptor): 23.08% | EC50 (GLP-1 receptor): 0.0273 nM | GIP Receptor % relative activity (GIP receptor): 0.01% | EC50 (GIP receptor): 51.1 nM

CCCCCCCCCCCCCCCC(=O)NCCCC[C@H](NC(=O)[C@H](CO)NC(=O)[C@@H]1CCCN1C(=O)[C@@H]1CCCN1C(=O)[C@@H]1CCCN1C(=O)[C@H](C)NC(=O)CNC(=O)[C@H](CO)NC(=O)[C@H](CO)NC(=O)[C@@H]1CCCN1C(=O)CNC(=O)CNC(=O)[C@H](C)NC(=O)[C@H](CC(C)C)NC(=O)[C@H](CC(C)C)NC(=O)[C@H](Cc1c[nH]c2ccccc12)NC(=O)[C@H](CC(N)=O)NC(=O)[C@@H](NC(=O)[C@H](Cc1ccccc1)NC(=O)[C@H](CCC(=O)O)NC(=O)C(C)(C)NC(=O)[C@H](C)NC(=O)[C@H](C)NC(=O)[C@H](CCC(N)=O)NC(=O)[C@H](CCCCN)NC(=O)[C@H](CC(=O)O)NC(=O)[C@H](CC(C)C)NC(=O)[C@H](Cc1ccc(O)cc1)NC(=O)[C@@H](NC(=O)[C@H](CO)NC(=O)[C@H](Cc1ccc(O)cc1)NC(=O)[C@H](CC(=O)O)NC(=O)[C@H](CO)NC(=O)[C@@H](NC(=O)[C@H](Cc1ccccc1)NC(=O)[C@@H](NC(=O)CNC(=O)[C@H](CCC(N)=O)NC(=O)C(C)(C)NC(=O)[C@@H](N)Cc1ccc(O)cc1)[C@@H](C)O)[C@@H](C)CC)[C@@H](C)CC)C(C)C)C(N)=O [mt-358] (H-Y[Aib]QGTFISDYSIYLDKQAA[Aib]EFVNWLLAGGPSSGAPPPSK(Palmitoyl)-NH2)
% Relative activity at the Receptor for Glucagon (glucagon receptor; Table 36): 710.29% | % Relative activity at the Receptor for GLP-1 (GLP-1 receptor; Table 36): 11.89% | % Relative activity at the Receptor for GIP (GIP receptor; Table 36): 313.61%

CSCC[C@H](NC(=O)[C@H](CC(C)C)NC(=O)[C@H](Cc1c[nH]c2ccccc12)NC(=O)[C@H](CCC(N)=O)NC(=O)[C@@H](NC(=O)[C@H](Cc1ccccc1)NC(=O)[C@H](CC(=O)O)NC(=O)[C@H](CCC(N)=O)NC(=O)[C@H](C)NC(=O)[C@H](CCCNC(=N)N)NC(=O)[C@H](CCCNC(=N)N)NC(=O)[C@H](CO)NC(=O)[C@H](CC(=O)O)NC(=O)[C@H](CC(C)C)NC(=O)[C@H](Cc1ccc(O)cc1)NC(=O)[C@H](CCCCN)NC(=O)[C@H](CO)NC(=O)[C@H](Cc1ccc(O)cc1)NC(=O)[C@H](CC(=O)O)NC(=O)[C@H](CO)NC(=O)[C@@H](NC(=O)[C@H](Cc1ccccc1)NC(=O)[C@@H](NC(=O)CNC(=O)[C@H](CCC(N)=O)NC(=O)[C@H](CO)NC(=O)[C@@H](N)Cc1c[nH]cn1)[C@@H](C)O)[C@@H](C)O)C(C)C)C(=O)N[C@@H](CCCCN)C(=O)NCC(=O)NCC(=O)N1CCC[C@H]1C(=O)N[C@@H](CO)C(=O)N[C@@H](CO)C(=O)NCC(=O)N[C@@H](C)C(=O)N1CCC[C@H]1C(=O)N1CCC[C@H]1C(=O)N1CCC[C@H]1C(=O)N[C@@H](CO)C(N)=O [MKGG^30 PSSGAPPPS (SEQ ID NO: 523)]
Glucagon Receptor Relative Potency (glucagon receptor; Table 11): 14% | GLP-1 Receptor Relative Potency (GLP-1 receptor; Table 11): 3%

CCCCCCCCCCCCCCCCCC(=O)NCCCC[C@H](NC(=O)[C@H](CC(=O)O)NC(=O)[C@H](CO)NC(=O)[C@@H](NC(=O)[C@H](Cc1ccccc1)NC(=O)[C@@H](NC(=O)CNC(=O)[C@H](CCC(N)=O)NC(=O)C(C)(C)NC(=O)[C@@H](N)Cc1c[nH]cn1)[C@@H](C)O)[C@@H](C)O)C(=O)N[C@@H](CO)C(=O)N[C@@H](CCCCN)C(=O)N[C@@H](Cc1ccc(O)cc1)C(=O)N[C@@H](CC(C)C)C(=O)N[C@@H](CC(=O)O)C(=O)NC(C)(C)C(=O)N[C@@H](CCCNC(=N)N)C(=O)N[C@@H](CCCNC(=N)N)C(=O)N[C@@H](C)C(=O)N[C@@H](CCC(N)=O)C(=O)N[C@@H](CC(=O)O)C(=O)N[C@@H](Cc1ccccc1)C(=O)N[C@H](C(=O)N[C@@H](CCC(N)=O)C(=O)N[C@@H](Cc1c[nH]c2ccccc12)C(=O)N[C@@H](CC(C)C)C(=O)N[C@@H](CCSC)C(=O)N[C@@H](CC(N)=O)C(=O)N[C@H](C(N)=O)[C@@H](C)O)C(C)C [AIB2, AIB16, K10(C18) Gluc Amide]
% Activity of Glucagon (glucagon receptor): 212.5% | % Activity of GLP-1 (GLP-1 receptor): 88.9%

CCCCCCCCCCCCCCCCCC(=O)NCCCC[C@H](NC(=O)[C@H](CC(=O)O)NC(=O)[C@H](CO)NC(=O)[C@@H](NC(=O)[C@H](Cc1ccccc1)NC(=O)[C@@H](NC(=O)CNC(=O)[C@H](CCC(N)=O)NC(=O)[C@@H](CO)NC(=O)[C@@H](N)Cc1c[nH]cn1)[C@@H](C)O)[C@@H](C)O)C(=O)N[C@@H](CO)C(=O)N[C@@H](CCCCN)C(=O)N[C@@H](Cc1ccc(O)cc1)C(=O)N[C@@H](CC(C)C)C(=O)N[C@@H](CC(=O)O)C(=O)N[C@@H](CCC(=O)O)C(=O)N[C@@H](CCCNC(=N)N)C(=O)N[C@@H](CCCNC(=N)N)C(=O)N[C@@H](C)C(=O)N[C@@H](CCCCN)C(=O)N[C@@H](CC(=O)O)C(=O)N[C@@H](Cc1ccccc1)C(=O)N[C@H](C(=O)N[C@@H](CCC(N)=O)C(=O)N[C@@H](Cc1c[nH]c2ccccc12)C(=O)N[C@@H](CC(C)C)C(=O)N[C@@H](CCSC)C(=O)N[C@@H](CC(N)=O)C(=O)N[C@H](C(N)=O)[C@@H](C)O)C(C)C [dS2, E16/K20, K10(C18) Gluc Amide]
% Activity of Glucagon (glucagon receptor): 196% | % Activity of GLP-1 (GLP-1 receptor): 60%
